According to patent publication US20080031968A1, “Methods for increasing cellular energy expenditure” (priority 2005, published 2008):

Columns and labels:
[1] = test system: HSMM; assay: Oxygen consumption and extracellular acidification rate in HSMM; settings: for cellular oxygen consumption: 48 or 72 hours; for extracellular acidification rate: after 72 hours of treatment
[2] = test system: HSMM; assay: D2 activity in human skeletal muscle myoblasts; format: cell-based; settings: 16 h incubation
Protocol: HSMM were obtained from Cambrex (Walkersville, Md.) and were cultured according to the suppliers instructions. D2 activity measurements were performed after a 16 h incubation with the indicated compounds. For the cAMP measurements, cells were preincubated 12 h in Opti-MEM (Life Technologies, Cergy Pontoise, France), supplemented with 1 mM IBMX. Then medium was changed and cells were incubated for another 1 h in Opti-MEM with 1 mM IBMX, after which the medium was replaced for Opti-MEM with 1 mM IBMX and the indicated compounds. After 30 minutes the cells were lysed for cAMP analysis.

[3] = test system: BAT cells; assay: Isolated mouse BAT cells, D2 mRNA, D2 activity and cAMP; format: cell-based
Protocol: An OGTT was performed in animals that were fasted overnight. Glucose was administered by gavage at a dose of 2 g/kg. An IPITT was done in 4 h fasted animals. Insulin was injected at a dose of 0.75 U/kg. Glucose quantification was done with the Maxi Kit Glucometer 4 (Bayer Diagnostic, Puteaux, France) or Glucose RTU (bioMérieux Inc., Marcy l'Etoile, France). Plasma insulin concentrations were measured using ELISA (Cristal Chem Inc., Downers Grove, Ill.). Nonesterified fatty acids, triglycerides, ketone bodies, BA and total cholesterol were determined by enzymatic assays (Roche, Mannheim, Germany). cAMP was measured using the cAMP-Screen system (Applied Biosystems, Bedford, Mass.).

[4] = target: T1, TGR5 (Homo sapiens, UniProt Q8TDU6); assay: CHO cells transiently expressing TGR5 and pCRE-Luc; format: cell-based; settings: different concentrations, almost as much cAMP accumulation as with 10 μM forskolin
T1 construct: expressed in transfected cells
T1 sequence (Q8TDU6 1-330): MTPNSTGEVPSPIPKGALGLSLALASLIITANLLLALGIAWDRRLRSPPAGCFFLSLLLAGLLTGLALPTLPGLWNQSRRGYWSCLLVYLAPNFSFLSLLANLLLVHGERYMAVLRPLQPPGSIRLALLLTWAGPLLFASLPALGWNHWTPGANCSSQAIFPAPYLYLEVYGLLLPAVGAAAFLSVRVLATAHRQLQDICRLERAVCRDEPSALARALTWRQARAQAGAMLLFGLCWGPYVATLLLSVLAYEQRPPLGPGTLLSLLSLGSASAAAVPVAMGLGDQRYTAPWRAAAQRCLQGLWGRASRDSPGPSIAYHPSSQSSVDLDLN
Description: These two steroids constitute about 2 percent by weight of gum guggul.

[5] = target: T1, TGR5; assay: cAMP response element (CRE)-luciferase reporter assay with TGR5; format: cell-based; settings: cells co-transfected with TGR5 expression plasmid and CRE-driven luciferase reporter
Description: Since a synthetic FXRα agonist was unable to phenocopy the effects of BAs on energy expenditure, we focused our attention on FXRα-independent signaling events stimulated by BAs. […] We used a cAMP response element (CRE)-luciferase reporter assay to confirm that TGR5 is a BA receptor.
We used quantitative RT-PCR to measure the expression of D2 and TGR5 mRNAs in selected mouse tissues.

[6] = test system: HSMM; assay: cAMP levels in human skeletal muscle myoblasts; format: cell-based; settings: 1 mM IBMX, 30 minutes
Protocol: HSMM were obtained from Cambrex (Walkersville, Md.) and were cultured according to the suppliers instructions. […] For the cAMP measurements, cells were preincubated 12 h in Opti-MEM (Life Technologies, Cergy Pontoise, France), supplemented with 1 mM IBMX. Then medium was changed and cells were incubated for another 1 h in Opti-MEM with 1 mM IBMX, after which the medium was replaced for Opti-MEM with 1 mM IBMX and the indicated compounds. After 30 minutes the cells were lysed for cAMP analysis.

[7] = test system: mouse SREBP-1c promoter; assay: SREBP-1c promoter luciferase reporter assay in McA-RH7777 cells; format: cell-based; settings: McA-RH7777 rat hepatoma cells, LXRα transfection and/or LXR and RXR agonists
Protocol: The LXR response elements in pSREBP-1c324-Luc were mutated for promoter analysis using the Quick Change Site-Directed Mutagenesis Kit (Stratagene, La Jolla, Calif., USA).
The rat hepatoma cell line McA-RH7777 was obtained from ATCC (Manassas, Va., USA). […] Transfections were performed in 96-well plates using Lipofectamine 2000 (Invitrogen, Cergy Pontoise, France). Each well contained 64 ng luciferase reporter and 4 ng of β-galactosidase expression plasmid. We transfected 16 ng RXRα, 16 ng LXRα, 16 ng LRH-1, 32 ng SHP expression plasmids, or the corresponding empty expression vectors. After 6 hours of incubation with the DNA-lipofectamine complexes, the transfection medium was exchanged for medium with or without the indicated ligands. Ligands for LXR and RXR were dissolved in ethanol or DMSO and added to the cells in DMEM supplemented with 10% lipoprotein-deficient serum. To suppress SREBP-1c activation by processing, leading to feed-forward induction of SREBP-1c expression, the medium used for the SREBP-1c promoter study was also supplemented with 10 μg/ml cholesterol and 1 μg/ml 25-hydroxycholesterol. Luciferase measurements were normalized to β-galactosidase activity.

[8] = test system: humans; settings: treatment of cholesterol gallstones; cited from earlier work
[9] = test system: humans; settings: cited from earlier work
[10] = test system: mouse primary hepatocytes; assay: Endogenous SREBP-1c and target gene expression in mouse primary hepatocytes; format: cell-based
Protocol: Hepatocytes were isolated from wild-type male mice 8-10 weeks old. Animals were anesthetized with CO2 and livers were perfused with 40 ml Liver Perfusion Medium (Invitrogen) followed by 30 ml Liver Digestion Medium (Invitrogen), both at a flow rate of 5 ml/min. Isolated hepatocytes were resuspended in DMEM supplemented with 20% (v/v) FCS, 100 units/ml penicillin, and 100 units/ml streptomycin, and placed in plates coated with collagen IV at a density of 1×10^5 cells/cm^2. After a 4-hour incubation at 37° C. in an atmosphere of 5% CO2, the medium was changed to DMEM supplemented with 10% (v/v) FCS, 100 units/ml penicillin, 100 units/ml streptomycin, 0.5 μM dexamethasone (Sigma-Aldrich), and 0.4 μM insulin (Sigma-Aldrich). After 16 hours, the medium was changed into medium supplemented with CDCA and ligands for LXR and RXR. After an additional 18-hour incubation, cells were harvested for RNA isolation.
Total RNA was extracted from frozen tissue samples or cells using the RNeasy kit (QIAGEN, Courtaboeuf, France). cDNA was synthesized from total RNA with the SuperScript First-Strand Synthesis System (Invitrogen) and random hexamer primers. The real-time PCR measurement of individual cDNAs was performed using SYBR green dye to measure duplex DNA formation with the LightCycler System (Roche Diagnostics, Meylan, France). The sequences of the primer sets used are available online at http://www-igbmc.ustrasbg.fr/Departments/Dep_V/Dep_VA/Publi/Paper.html.

[11] = test system: BAT of C57BL/6J mice; assay: BAT gene expression by microarray and Q-RT-PCR; format: in vivo, mouse; settings: high fat diet mixed with CA or CDCA for 9 days
Protocol: For microarray analysis, RNA was isolated from BAT using the RNeasy mini kit (QIAGEN, Courtaboeuf, France). Equal amounts of RNA from mice in each group were pooled (n=3 or 4 mice) and used for cDNA synthesis. After second-strand cDNA synthesis (Life Technologies, Cergy Pontoise, France), in vitro transcription was performed with biotinylated UTP and CTP (Enzo Diagnostics, Farmingdale, N.Y.). Fragmented cRNA samples were hybridized to the Affymetrix MOE430A microarray. The raw data was analyzed using the Microarray Suite Software version 5.0 (MAS5.0, Affymetrix, Santa Clara, Calif.).

[12] = test system: C57BL/6J mice; assay: LXR agonist-induced lipogenesis in C57BL/6J mice with or without CA; format: in vivo, mouse; settings: C57BL/6J mice, chow diet, gavage 30 mg/kg
Protocol: Male C57BL/6J, KK-Ay, and ob/ob (C57BL/6J background) mice, 6-10 weeks of age, were obtained from Elevage Janvier (Le Genest St. Isle, France), CLEA Japan Inc. (Tokyo, Japan), and The Jackson Laboratory (Bar Harbor, Me., USA), respectively. All mice were maintained in a temperature-controlled (23° C.) facility with a 12-hour light/dark cycle and were given free access to food and water. The study protocols were approved by the institutional review boards. The body weight and food intake were measured every second day. The control and high-fat diet was obtained from UAR (Villemoisson sur Orge, France). […] The mice were fasted 4 hours before harvesting blood for subsequent lipid measurements, and tissues for RNA isolation, lipid measurements, and histology.
Mice were gavaged with the LXR agonist T0901317 or vehicle, and the different diets were continued for one more day, after which the mice were sacrificed.

C[C@H](CCC(=O)NCCS(=O)(=O)O)[C@H]1CC[C@H]2[C@@H]3[C@H](O)C[C@@H]4C[C@H](O)CC[C@]4(C)[C@H]3C[C@H](O)[C@]12C [TCA, taurocholic acid]
cellular oxygen consumption [1]: elevated | extracellular acidification rate [1]: increase | D2 activity [2]: significant and dose dependent induction | cAMP levels ([3]; BAT cells): most effective | D2 mRNA and activity ([3]; BAT cells from mice fed control or high fat diet): dose dependently increased | reporter activity [4]: dramatically increased | luciferase expression [5]: increased luciferase expression in a dose-dependent manner | cAMP levels [6]: increased cAMP levels in a dose-dependant fashion

C[C@H](CCC(=O)NCCS(=O)(=O)O)[C@H]1CC[C@H]2[C@@H]3[C@H](O)C[C@@H]4C[C@H](O)CC[C@]4(C)[C@H]3CC[C@]12C [TCDCA, tauroCDCA]
cAMP levels [6]: did not increase

N[C@@H](Cc1cc(I)c(Oc2ccc(O)c(I)c2)c(I)c1)C(=O)O [T3, 3,5,3′-triiodothyronine]
cellular oxygen consumption [1]: elevated | extracellular acidification rate [1]: increase

C[C@H](CCC(=O)O)[C@H]1CC[C@H]2[C@@H]3[C@H](O)C[C@@H]4C[C@H](O)CC[C@]4(C)[C@H]3CC[C@]12C [CDCA, chenodeoxycholic acid]
increase of SREBP-1c promoter activity [7]: attenuated | hypertriglyceridemia [8]: reduce hypertriglyceridemia | hepatotoxicity [9]: significant hepatotoxicity | LDL cholesterol ([9]; decrease in LDL-R activity): raise LDL cholesterol | expression of lipogenic target genes of SREBP-1c (SCD-1, AceCS, ME) ([10]; RXR and LXR ligands plus CDCA): decreased likewise | SHP expression ([10]; addition of CDCA): increased | endogenous SREBP-1c expression ([10]; induced by RXR and LXR ligands, increasing amounts of CDCA, 18-hour incubation): decreased dose-dependently | genes involved in control of energy expenditure incl. D2 in BAT (microarray) [11]: upregulated | cAMP levels [6]: increased cAMP levels in a dose-dependant fashion

O=S(=O)(c1ccccc1)N(CC(F)(F)F)c1ccc(C(O)(C(F)(F)F)C(F)(F)F)cc1 [T0901317]
liver weight and serum TGs [12]: induction
